Laboratory results: US6737383B1, “Herbicidal oxadiazolidines” (priority 1999, dated 2004)

Key:
common groundsel = experiment: Test D common groundsel; type: in vivo, Senecio vulgaris; conditions: Postemergence, 0 to 100 scale
bermuda-grass = experiment: Test D bermudagrass; type: in vivo, Cynodon dactylon; conditions: Postemergence, 0 to 100 scale
Green foxtail [1] = experiment: Test D green foxtail; type: in vivo; conditions: Postemergence, 0 to 100 scale, 0 no injury, 100 complete control
guineagrass = experiment: Test D guineagrass; type: in vivo, Panicum maximum; conditions: Postemergence, 0 to 100 scale
surinam grass = experiment: Test D surinam grass; type: in vivo, Brachiaria decumbens; conditions: Postemergence, 0 to 100 scale
Alexandergrass = experiment: Test D Alexandergrass; type: in vivo, Brachiaria plantaginea; conditions: Postemergence, 0 to 100 scale
Johnson grass = experiment: Test D Johnson grass; type: in vivo, Sorghum halepense; conditions: Postemergence, 0 to 100 scale
Spanishneedles = experiment: Test D Spanishneedles; type: in vivo, Bidens bipinnata
large crabgrass = experiment: Test D large crabgrass; type: in vivo, Digitaria sanguinalis; conditions: Postemergence, 0 to 100 scale
Green foxtail [2] = experiment: Test D green foxtail; type: in vivo; conditions: Rate 250 g/ha; Postemergence; 0 to 100 scale
[3] = Rate 16 g/ha, 0 no injury, 100 complete control
[4] = Rate 32 g/ha, 0 no injury, 100 complete control
[5] = Rate 64 g/ha, 0 no injury, 100 complete control
[6] = Rate 125 g/ha, 0 no injury, 100 complete control
[7] = Rate 16 g/ha; Postemergence; 0 to 100 scale, 0 no injury, 100 complete control
[8] = Rate 32 g/ha; Postemergence; 0 to 100 scale, 0 no injury, 100 complete control
[9] = Rate 64 g/ha, Postemergence; 0 to 100 scale, 0 no injury, 100 complete control
[10] = Rate 125 g/ha, Postemergence; 0 to 100 scale, 0 no injury, 100 complete control
[11] = Rate 250 g/ha; Postemergence; 0 to 100 scale

CC(C)N(C(=O)n1oc(=O)n(C2CC2)c1=O)c1ccccc1 [Compound 243]
Plant response rating, Com. groundsel (common groundsel; [3]): 0
Plant response rating, Com. groundsel (common groundsel; [4]): 0
Plant response rating, Com. groundsel (common groundsel; [5]): 0
Plant response rating, Com. groundsel (common groundsel; [6]): 100
Plant response rating, Com. groundsel (common groundsel; Rate 250 g/ha): 100
Plant response rating, Bermudagrass (bermuda-grass; [3]): 20
Plant response rating, Bermudagrass (bermuda-grass; [4]): 60
Plant response rating, Bermudagrass (bermuda-grass; [5]): 100
Plant response rating, Bermudagrass (bermuda-grass; [6]): 100
Plant response rating, Bermudagrass (bermuda-grass; Rate 250 g/ha): 100
Plant response rating, Green foxtail (Green foxtail [1]; Rate 64 g/ha): 100
Plant response rating, Green foxtail (Green foxtail [1]; Rate 125 g/ha): 100
Plant response rating, Guineagrass (guineagrass; [3]): 0
Plant response rating, Guineagrass (guineagrass; [4]): 0
Guineagrass plant response rating (guineagrass; [5]): 0
Plant response rating, Guineagrass (guineagrass; [5]): 20
Plant response rating, Guineagrass (guineagrass; [6]): 100
Plant response rating, Guineagrass (guineagrass; Rate 250 g/ha): 100
Plant response rating, Surinam grass (surinam grass; [3]): 0
Plant response rating, Surinam grass (surinam grass; [4]): 20
Surinam grass plant response rating (surinam grass; [5]): 90
Surinam grass plant response rating (surinam grass; [6]): 100
Plant response rating, Surinam grass (surinam grass; Rate 250 g/ha): 100
Plant response rating, Alexandergrass (Alexandergrass; [3]): 0
Plant response rating, Alexandergrass (Alexandergrass; [4]): 0
Plant response rating, Alexandergrass (Alexandergrass; [5]): 20
Plant response rating, Alexandergrass (Alexandergrass; [6]): 100
Plant response rating, Alexandergrass (Alexandergrass; Rate 250 g/ha): 100
Plant response rating Johnsongrass (Johnson grass; [3]): 0
Plant response rating Johnsongrass (Johnson grass; [4]): 0
Plant response rating Johnsongrass (Johnson grass; [5]): 0
Plant response rating Johnsongrass (Johnson grass; [6]): 30
Plant response rating Johnsongrass (Johnson grass; Rate 250 g/ha): 100
Plant response rating, Spanishneedles (Spanishneedles; Postemergence; Rate 32 g/ha; 0 to 100 scale, 0 no injury, 100 complete control): 50
Plant response rating, Spanishneedles (Spanishneedles; [7]): 0
Plant response rating, Spanishneedles (Spanishneedles; [8]): 0
Spanishneedles plant response rating (Spanishneedles; [9]): 50
Spanishneedles plant response rating (Spanishneedles; [10]): 20
Plant response rating, Spanishneedles (Spanishneedles; [11]): 100
Plant response rating Large crabgrass (large crabgrass; [3]): 0
Plant response rating Large crabgrass (large crabgrass; [4]): 70
Plant response rating Large crabgrass (large crabgrass; [5]): 100
Plant response rating Large crabgrass (large crabgrass; [6]): 100
Plant response rating Large crabgrass (large crabgrass; Rate 250 g/ha): 100
Plant response rating, Green foxtail (Green foxtail [2]): 100

COCC(C)n1c(=O)on(C(=O)N(c2ccc(F)cc2F)C(C)C)c1=O (centres unmarked) [Compound 352]
Plant response rating, Com. groundsel (common groundsel; [4]): 0
Plant response rating, Com. groundsel (common groundsel; [5]): 50
Plant response rating, Com. groundsel (common groundsel; [6]): 100
Plant response rating, Com. groundsel (common groundsel; Rate 250 g/ha): 100
Plant response rating, Bermudagrass (bermuda-grass; [3]): 0
Plant response rating, Bermudagrass (bermuda-grass; [4]): 80
Plant response rating, Bermudagrass (bermuda-grass; [5]): 100
Plant response rating, Bermudagrass (bermuda-grass; [6]): 100
Plant response rating, Bermudagrass (bermuda-grass; Rate 250 g/ha): 100
Plant response rating, Green foxtail (Green foxtail [1]; Rate 64 g/ha): 100
Plant response rating, Green foxtail (Green foxtail [1]; Rate 125 g/ha): 100
Plant response rating, Guineagrass (guineagrass; [3]): 0
Plant response rating, Guineagrass (guineagrass; [4]): 0
Guineagrass plant response rating (guineagrass; [5]): 20
Plant response rating, Guineagrass (guineagrass; [5]): 60
Plant response rating, Guineagrass (guineagrass; [6]): 80
Plant response rating, Guineagrass (guineagrass; Rate 250 g/ha): 100
Plant response rating, Surinam grass (surinam grass; [3]): 0
Plant response rating, Surinam grass (surinam grass; [4]): 0
Surinam grass plant response rating (surinam grass; [5]): 30
Surinam grass plant response rating (surinam grass; [6]): 70
Plant response rating, Surinam grass (surinam grass; Rate 250 g/ha): 100
Plant response rating, Alexandergrass (Alexandergrass; [3]): 0
Plant response rating, Alexandergrass (Alexandergrass; [4]): 60
Plant response rating, Alexandergrass (Alexandergrass; [5]): 80
Plant response rating, Alexandergrass (Alexandergrass; [6]): 100
Plant response rating, Alexandergrass (Alexandergrass; Rate 250 g/ha): 100
Plant response rating Johnsongrass (Johnson grass; [3]): 0
Plant response rating Johnsongrass (Johnson grass; [4]): 0
Plant response rating Johnsongrass (Johnson grass; [5]): 0
Plant response rating Johnsongrass (Johnson grass; [6]): 40
Plant response rating Johnsongrass (Johnson grass; Rate 250 g/ha): 80
Plant response rating, Spanishneedles (Spanishneedles; [7]): 0
Plant response rating, Spanishneedles (Spanishneedles; [8]): 0
Spanishneedles plant response rating (Spanishneedles; [9]): 0
Spanishneedles plant response rating (Spanishneedles; [10]): 40
Plant response rating, Spanishneedles (Spanishneedles; [11]): 30
Plant response rating Large crabgrass (large crabgrass; [3]): 0
Plant response rating Large crabgrass (large crabgrass; [4]): 100
Plant response rating Large crabgrass (large crabgrass; [5]): 100
Plant response rating Large crabgrass (large crabgrass; [6]): 100
Plant response rating Large crabgrass (large crabgrass; Rate 250 g/ha): 100
Plant response rating, Green foxtail (Green foxtail [2]): 100

CC(C)N(C(=O)n1oc(=O)n(C2(C)CC2)c1=O)c1ccccc1 [Compound 360]
Plant response rating, Com. groundsel (common groundsel; [5]): 0
Plant response rating, Com. groundsel (common groundsel; [6]): 100
Plant response rating, Com. groundsel (common groundsel; Rate 250 g/ha): 100
Plant response rating, Bermudagrass (bermuda-grass; [3]): 0
Plant response rating, Bermudagrass (bermuda-grass; [4]): 100
Plant response rating, Bermudagrass (bermuda-grass; [5]): 100
Plant response rating, Bermudagrass (bermuda-grass; [6]): 100
Plant response rating, Bermudagrass (bermuda-grass; Rate 250 g/ha): 100
Plant response rating, Green foxtail (Green foxtail [1]; Rate 64 g/ha): 100
Plant response rating, Green foxtail (Green foxtail [1]; Rate 125 g/ha): 100
Plant response rating, Guineagrass (guineagrass; [3]): 0
Plant response rating, Guineagrass (guineagrass; [4]): 100
Guineagrass plant response rating (guineagrass; [5]): 100
Plant response rating, Guineagrass (guineagrass; [6]): 100
Plant response rating, Guineagrass (guineagrass; Rate 250 g/ha): 100
Plant response rating, Surinam grass (surinam grass; [3]): 0
Plant response rating, Surinam grass (surinam grass; [4]): 0
Surinam grass plant response rating (surinam grass; [5]): 100
Surinam grass plant response rating (surinam grass; [6]): 90
Plant response rating, Surinam grass (surinam grass; Rate 250 g/ha): 100
Plant response rating, Alexandergrass (Alexandergrass; [3]): 20
Plant response rating, Alexandergrass (Alexandergrass; [4]): 60
Plant response rating, Alexandergrass (Alexandergrass; [5]): 50
Plant response rating, Alexandergrass (Alexandergrass; [6]): 100
Plant response rating, Alexandergrass (Alexandergrass; Rate 250 g/ha): 100
Plant response rating Johnsongrass (Johnson grass; [3]): 0
Plant response rating Johnsongrass (Johnson grass; [4]): 0
Plant response rating Johnsongrass (Johnson grass; [5]): 0
Plant response rating Johnsongrass (Johnson grass; [6]): 50
Plant response rating Johnsongrass (Johnson grass; Rate 250 g/ha): 70
Plant response rating, Spanishneedles (Spanishneedles; [7]): 0
Spanishneedles plant response rating (Spanishneedles; [9]): 0
Spanishneedles plant response rating (Spanishneedles; [10]): 0
Plant response rating, Spanishneedles (Spanishneedles; [11]): 20
Plant response rating Large crabgrass (large crabgrass; [3]): 0
Plant response rating Large crabgrass (large crabgrass; [4]): 80
Plant response rating Large crabgrass (large crabgrass; [5]): 100
Plant response rating Large crabgrass (large crabgrass; [6]): 100
Plant response rating Large crabgrass (large crabgrass; Rate 250 g/ha): 100
Plant response rating, Green foxtail (Green foxtail [2]): 100
